# Data from PubChem BioAssay (NCI).
#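 How tested: cells in 96-well plates exposed to compound for 48 hours at five concentrations. TGI is the concentration that stops growth completely.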
# Tests used:
# Assay in all cases: inhibition of tumour cell growth, NCI panel, 48 h
# SNB-19 CNS = system: SNB-19 CNS
# MDA-N = system: MDA-N
# SN12C renal = system: SN12C renal
# UACC-257 melanoma = system: UACC-257 melanoma
# NCI-H460 lung = system: NCI-H460 lung
# NCI/ADR-RES ovarian = system: NCI/ADR-RES ovarian
# HCT-15 colon = system: HCT-15 colon
# MDA-MB-231 breast = system: MDA-MB-231 breast
# HS 578T breast = system: HS 578T breast
# OVCAR-5 ovarian = system: OVCAR-5 ovarian
# OVCAR-4 ovarian = system: OVCAR-4 ovarian
# SK-MEL-2 melanoma = system: SK-MEL-2 melanoma
# LOX IMVI melanoma = system: LOX IMVI melanoma
# OVCAR-8 ovarian = system: OVCAR-8 ovarian
# UO-31 renal = system: UO-31 renal
# SR leukemia = system: SR leukemia
# HOP-62 NSCLC = system: HOP-62 NSCLC
# SNB-75 CNS = system: SNB-75 CNS
# SK-OV-3 ovarian = system: SK-OV-3 ovarian
# ACHN renal = system: ACHN renal
# SF-295 CNS = system: SF-295 CNS
# MDA-MB-435 = system: MDA-MB-435
# IGROV1 ovarian = system: IGROV1 ovarian
# NCI-H226 lung = system: NCI-H226 lung
# A498 renal = system: A498 renal
# 786-0 renal = system: 786-0 renal
# BT-549 breast = system: BT-549 breast
# HT29 colon = system: HT29 colon
# UACC-62 melanoma = system: UACC-62 melanoma
# KM12 colon = system: KM12 colon
# MCF7 breast = system: MCF7 breast
# DU-145 prostate = system: DU-145 prostate
# A549 NSCLC = system: A549 NSCLC
# NCI-H23 lung = system: NCI-H23 lung
# TK-10 renal = system: TK-10 renal
# U251 CNS = system: U251 CNS
# M14 melanoma = system: M14 melanoma
# T-47D breast = system: T-47D breast
# CCRF-CEM leukemia = system: CCRF-CEM leukemia
# RPMI-8226 leukemia = system: RPMI-8226 leukemia
# SF-539 CNS = system: SF-539 CNS
# SF-268 CNS = system: SF-268 CNS
# MALME-3M melanoma = system: MALME-3M melanoma
# HOP-92 NSCLC = system: HOP-92 NSCLC
# SK-MEL-5 melanoma = system: SK-MEL-5 melanoma
# PC-3 prostate = system: PC-3 prostate
# HCC-2998 colon = system: HCC-2998 colon
# EKVX NSCLC = system: EKVX NSCLC
# COLO 205 colon = system: COLO 205 colon
# SK-MEL-28 melanoma = system: SK-MEL-28 melanoma
# CAKI-1 renal = system: CAKI-1 renal
# RXF 393 renal = system: RXF 393 renal
# OVCAR-3 ovarian = system: OVCAR-3 ovarian
# NCI-H522 lung = system: NCI-H522 lung
# HL-60(TB) leukemia = system: HL-60(TB) leukemia
# HCT-116 colon = system: HCT-116 colon
# MOLT-4 leukemia = system: MOLT-4 leukemia
# K-562 leukemia = system: K-562 leukemia
# SW-620 colon = system: SW-620 colon
smiles,measurement,setting,value
CN(C)CCCNc1ccc2c(=O)n(CCN(C)C)c(=O)n3c4ccccc4c(=O)c1c23,TGI,SNB-19 CNS,3.02 µM
same,TGI,MDA-N,0.312 µM
same,TGI,SN12C renal,0.941 µM
same,TGI,UACC-257 melanoma,2.05 µM
same,TGI,NCI-H460 lung,1.06 µM
same,TGI,NCI/ADR-RES ovarian,4.02 µM
same,TGI,HCT-15 colon,1.13 µM
same,TGI,MDA-MB-231 breast,0.496 µM
same,TGI,HS 578T breast,15.7 µM
same,TGI,OVCAR-5 ovarian,1.89 µM
same,TGI,OVCAR-4 ovarian,4.35 µM
same,TGI,SK-MEL-2 melanoma,2.52 µM
same,TGI,LOX IMVI melanoma,0.343 µM
same,TGI,OVCAR-8 ovarian,3.59 µM
same,TGI,UO-31 renal,2.08 µM
same,TGI,SR leukemia,2.96 µM
same,TGI,HOP-62 NSCLC,5.91 µM
same,TGI,SNB-75 CNS,7.51 µM
same,TGI,SK-OV-3 ovarian,4.9 µM
same,TGI,ACHN renal,1.47 µM
same,TGI,SF-295 CNS,1.69 µM
same,TGI,MDA-MB-435,0.885 µM
same,TGI,IGROV1 ovarian,4.33 µM
same,TGI,NCI-H226 lung,2.53 µM
same,TGI,A498 renal,5.35 µM
same,TGI,786-0 renal,0.752 µM
same,TGI,BT-549 breast,0.369 µM
same,TGI,HT29 colon,0.907 µM
same,TGI,UACC-62 melanoma,1.56 µM
same,TGI,KM12 colon,1.4 µM
same,TGI,MCF7 breast,0.565 µM
same,TGI,DU-145 prostate,0.511 µM
same,TGI,A549 NSCLC,10.5 µM
same,TGI,NCI-H23 lung,1.19 µM
same,TGI,TK-10 renal,2.28 µM
same,TGI,U251 CNS,2.15 µM
same,TGI,M14 melanoma,1.59 µM
same,TGI,T-47D breast,13.7 µM
same,TGI,CCRF-CEM leukemia,> 100 µM
same,TGI,RPMI-8226 leukemia,0.595 µM
same,TGI,SF-539 CNS,2.02 µM
same,TGI,SF-268 CNS,11.8 µM
same,TGI,MALME-3M melanoma,3.99 µM
same,TGI,HOP-92 NSCLC,7.79 µM
same,TGI,SK-MEL-5 melanoma,2.19 µM
same,TGI,PC-3 prostate,1.81 µM
same,TGI,HCC-2998 colon,0.267 µM
same,TGI,EKVX NSCLC,3.02 µM
same,TGI,COLO 205 colon,1.22 µM
same,TGI,SK-MEL-28 melanoma,2.57 µM
same,TGI,CAKI-1 renal,0.944 µM
same,TGI,RXF 393 renal,2.58 µM
same,TGI,OVCAR-3 ovarian,3.35 µM
same,TGI,NCI-H522 lung,0.385 µM
Oc1cc2c3c(c1)CCCN3CCC2,TGI,SNB-19 CNS,> 10 µM
same,TGI,MDA-N,> 10 µM
same,TGI,SN12C renal,> 10 µM
same,TGI,HL-60(TB) leukemia,> 10 µM
same,TGI,UACC-257 melanoma,> 10 µM
same,TGI,NCI-H460 lung,> 10 µM
same,TGI,NCI/ADR-RES ovarian,> 10 µM
same,TGI,HCT-15 colon,> 10 µM
same,TGI,MDA-MB-231 breast,> 10 µM
same,TGI,HS 578T breast,> 10 µM
same,TGI,OVCAR-5 ovarian,> 10 µM
same,TGI,OVCAR-4 ovarian,> 10 µM
same,TGI,SK-MEL-2 melanoma,> 10 µM
same,TGI,LOX IMVI melanoma,> 10 µM
same,TGI,OVCAR-8 ovarian,> 10 µM
same,TGI,SR leukemia,> 10 µM
same,TGI,HOP-62 NSCLC,> 10 µM
same,TGI,SNB-75 CNS,> 10 µM
same,TGI,SK-OV-3 ovarian,> 10 µM
same,TGI,ACHN renal,> 10 µM
same,TGI,SF-295 CNS,> 10 µM
same,TGI,HCT-116 colon,> 10 µM
same,TGI,MDA-MB-435,> 10 µM
same,TGI,IGROV1 ovarian,> 10 µM
same,TGI,NCI-H226 lung,> 10 µM
same,TGI,A498 renal,> 10 µM
same,TGI,786-0 renal,> 10 µM
same,TGI,BT-549 breast,> 10 µM
same,TGI,HT29 colon,> 10 µM
same,TGI,UACC-62 melanoma,> 10 µM
same,TGI,KM12 colon,> 10 µM
same,TGI,MCF7 breast,> 10 µM
same,TGI,DU-145 prostate,> 10 µM
same,TGI,A549 NSCLC,> 10 µM
same,TGI,NCI-H23 lung,> 10 µM
same,TGI,TK-10 renal,> 10 µM
same,TGI,U251 CNS,> 10 µM
same,TGI,MOLT-4 leukemia,> 10 µM
same,TGI,M14 melanoma,> 10 µM
same,TGI,T-47D breast,> 10 µM
same,TGI,CCRF-CEM leukemia,> 10 µM
same,TGI,RPMI-8226 leukemia,> 10 µM
same,TGI,SF-539 CNS,> 10 µM
same,TGI,SF-268 CNS,> 10 µM
same,TGI,MALME-3M melanoma,> 10 µM
same,TGI,HOP-92 NSCLC,> 10 µM
same,TGI,SK-MEL-5 melanoma,> 10 µM
same,TGI,PC-3 prostate,> 10 µM
same,TGI,K-562 leukemia,> 10 µM
same,TGI,HCC-2998 colon,> 10 µM
same,TGI,EKVX NSCLC,> 10 µM
same,TGI,COLO 205 colon,> 10 µM
same,TGI,SW-620 colon,> 10 µM
same,TGI,SK-MEL-28 melanoma,> 10 µM
same,TGI,CAKI-1 renal,> 10 µM
same,TGI,RXF 393 renal,> 10 µM
same,TGI,OVCAR-3 ovarian,> 10 µM
same,TGI,NCI-H522 lung,> 10 µM
